Reference: EPA's ToxRefDB 2

Columns and labels:
[1] = tested on: rat; details: Multigenerational reproductive toxicity study, other, Oral, Feed, dose end: 2 generation
[2] = tested on: mouse; details: Carcinogenicity, cd1, Oral, Feed, dose end: 105 week, group: systemic
[3] = tested on: rat; details: Combined chronic toxicity/carcinogenicity, sprague dawley, Oral, Feed, dose end: 104 week
[4] = tested on: rat; details: Subchronic oral toxicity in rodents, other, Feed, dose end: 13 week, group: systemic
[5] = tested on: rat; details: Multigenerational reproductive toxicity study, other, Oral, Feed, dose end: 2 generation; remark: listed apart in the source
[6] = tested on: rat; details: Subchronic oral toxicity in rodents, fischer, Feed, dose end: 90 day, group: systemic, systemic / pathology microscopic / stomach / hyperplasia
[7] = tested on: rat; details: Combined chronic toxicity/carcinogenicity, fischer, Oral, Feed, dose end: 104 week, group: systemic
[8] = tested on: dog; details: Chronic toxicity; beagle; Oral; Capsule; dose end: 52 week; group: systemic; systemic / pathology microscopic / kidney / dilatation + systemic / pathology microscopic / kidney / fibrosis + systemic / urinalysis / …
[9] = tested on: rabbit; details: Prenatal developmental toxicity study; new zealand white; Oral; Gavage/Intubation; dose end: 19 GD; group: maternal; reproductive / reproductive performance / aborted / aborted + systemic / in life observation / body weight / body weight gain + systemic / …
[10] = tested on: mouse; details: Carcinogenicity; b6c3f1; Oral; Feed; dose end: 104 week; group: systemic; systemic / in life observation / body weight / body weight gain + systemic / in life observation / food consumption / food consumption + …
[11] = tested on: dog; details: Subchronic oral toxicity in nonrodent, beagle, Capsule, dose end: 13 week, group: systemic
[12] = tested on: mouse; details: Subchronic oral toxicity in rodents, b6c3f1, Feed, dose end: 90 day, group: systemic, systemic / in life observation / body weight / body weight + systemic / in life observation / body weight / body weight gain + systemic / in…
[13] = tested on: rabbit; details: Prenatal developmental toxicity study, himalayan, Oral, Gavage/Intubation, dose end: 28 GD
[14] = tested on: rat; details: Subchronic oral toxicity in rodents, wistar, Feed, dose end: 90 day, group: systemic, systemic / pathology microscopic / stomach / hyperplasia + systemic / pathology microscopic / stomach / infiltration cellular + systemic / …
[15] = tested on: rat; details: Multigenerational reproductive toxicity study, wistar, Oral, Feed, dose end: 2 generation
[16] = tested on: mouse; details: Carcinogenicity, other, Oral, Feed, dose end: 24 month, group: systemic
[17] = tested on: rat; details: Combined chronic toxicity/carcinogenicity, fischer, Oral, Feed, dose end: 24 month, group: systemic
[18] = tested on: dog; details: Subchronic oral toxicity in nonrodent, beagle, Feed, dose end: 64 day, group: systemic, systemic / clinical chemistry / cytochrome p450, nos / cytochrome p450, nos + systemic / clinical chemistry / o-demethylase / o-demethylase…
[19] = tested on: dog; details: Chronic toxicity, beagle, Oral, Feed, dose end: 12 month, group: systemic
[20] = tested on: dog; details: Chronic toxicity; beagle; Oral; Feed; dose end: 12 month; group: systemic; systemic / pathology microscopic / adrenal gland / fatty change + systemic / pathology microscopic / adrenal gland / hyperplasia + systemic…
[21] = tested on: rat; details: Peri- and post-natal toxicity study (Segment III), sprague dawley, Oral, Gavage/Intubation, dose end: 42 PND
[22] = group: cholinesterase, cholinesterase / cholinesterase / cholinesterase / cholinesterase (che)
[23] = group: offspring, systemic / in life observation / body weight / offspring (pup) weight
[24] = group: offspring, systemic / in life observation / body weight / offspring (pup) weight + developmental / offspring survival late / lactation index / …
[25] = group: parental, systemic / in life observation / body weight / body weight gain
[26] = group: reproductive, reproductive / offspring survival early / litter size / litter size
[27] = systemic / in life observation / body weight / body weight gain
[28] = group: cholinesterase, cholinesterase / cholinesterase / cholinesterase / erythrocyte cholinesterase (che) + cholinesterase / cholinesterase / cholinesterase / …
[29] = group: cholinesterase, cholinesterase / cholinesterase / cholinesterase / plasma cholinesterase (che)
[30] = group: systemic, systemic / clinical chemistry / urea nitrogen / urea nitrogen
[31] = group: systemic, systemic / clinical chemistry / urea nitrogen / urea nitrogen + systemic / organ weight / brain / relative to body weight + systemic / organ…
[32] = systemic / pathology microscopic / kidney / hypertrophy
[33] = systemic / pathology microscopic / kidney / hypertrophy + systemic / in life observation / body weight / body weight + systemic / in life …
[34] = group: parental, systemic / pathology gross / stomach / thickened + systemic / pathology microscopic / stomach / acanthosis + systemic / pathology …
[35] = systemic / clinical chemistry / potassium / potassium + systemic / in life observation / clinical signs / abnormal feces + systemic / …
[36] = group: developmental, developmental / developmental malformation / bone / absent + developmental / developmental malformation / bone / enlarged fontanel + …
[37] = group: maternal, reproductive / reproductive performance / aborted / aborted + systemic / in life observation / body weight / body weight + systemic / in …
[38] = group: parental, systemic / pathology microscopic / stomach / vacuolization
[39] = group: reproductive, reproductive / offspring survival early / birth index / live birth index
[40] = systemic / hematology / leukocyte (wbc) count differential / leukocyte (wbc) + systemic / hematology / mean corpuscular hemoglobin (mch) / …
[41] = systemic / hematology / mean corpuscular hemoglobin concentration (mchc) / mean corpuscular hemoglobin concentration (mchc)
[42] = systemic / organ weight / kidney / relative to body weight
[43] = systemic / organ weight / spleen / absolute + systemic / organ weight / spleen / relative to body weight + systemic / pathology microscopic…
[44] = systemic / pathology gross / liver / accentuated lobular pattern + systemic / pathology microscopic / eye / lesion(s) (nos) + systemic / …
[45] = group: maternal, reproductive / offspring survival early / dead fetuses / dead fetuses
[46] = group: offspring, systemic / hematology / leukocyte (wbc) count differential / leukocyte (wbc) + systemic / in life observation / body weight / offspring (pup…

SMILES: COP(=O)(OC)SCn1c(=O)oc2cc(Cl)cnc21 [Azamethiphos]
- LEL [1, 22]: 10 mg/kg/day
- LOAEL [1, 22]: 10 mg/kg/day
- NEL [1, 22]: 2 mg/kg/day
- NOAEL [1, 22]: 2 mg/kg/day
- LOAEL [1, 23]: 50 mg/kg/day
- LEL [1, 24]: 50 mg/kg/day
- NEL [1, 24]: 10 mg/kg/day
- NOAEL [1, 24]: 10 mg/kg/day
- LEL [1, 25]: 10 mg/kg/day
- LOAEL [1, 25]: 10 mg/kg/day
- NEL [1, 25]: 2 mg/kg/day
- NOAEL [1, 25]: 2 mg/kg/day
- LEL [1, 26]: 50 mg/kg/day
- LOAEL [1, 26]: 50 mg/kg/day
- NEL [1, 26]: 10 mg/kg/day
- NOAEL [1, 26]: 10 mg/kg/day
- LEL [2, 27]: 6.2 mg/kg/day
- NEL [2, 27]: < 6.2 mg/kg/day
- LOAEL ([2]; systemic / pathology microscopic / intestine small / hyperplasia): 60.2 mg/kg/day
- NOAEL ([2]; systemic / pathology microscopic / intestine small / hyperplasia + systemic / hematology / hematocrit (hct) / hematocrit (hct) + systemic / …): 6.2 mg/kg/day
- LOAEL [3, 28]: 8.1 mg/kg/day
- NOAEL [3, 28]: 0.8 mg/kg/day
- LEL [3, 29]: 1.1 mg/kg/day
- NEL [3, 29]: < 1.1 mg/kg/day
- LEL [3, 30]: 0.8 mg/kg/day
- NEL [3, 30]: < 0.8 mg/kg/day
- LOAEL [3, 31]: > 62.6 mg/kg/day
- NOAEL [3, 31]: ≥ 62.6 mg/kg/day

SMILES: CCOP(=O)([O-])C(N)=O.[NH4+] [Fosamine ammonium]
- LEL [4, 32]: 50 mg/kg/day
- LOAEL [4, 32]: 50 mg/kg/day
- NEL [4, 33]: 10 mg/kg/day
- NOAEL [4, 33]: 10 mg/kg/day

SMILES: CCC([O-])=C1C(=O)CC(C(=O)[O-])CC1=O.[Ca+2] (stereo not given) [Prohexadione-calcium]
- LEL [5, 23]: 385 mg/kg/day
- LOAEL [5, 23]: 3850 mg/kg/day
- NEL [5, 23]: 35.5 mg/kg/day
- NOAEL [5, 23]: 385 mg/kg/day
- LOAEL ([5]; group: parental, systemic / in life observation / mortality / mortality): 385 mg/kg/day
- NOAEL ([5]; group: parental, systemic / in life observation / mortality / mortality + systemic / in life observation / body weight / body weight + systemic / pathology …): 35.5 mg/kg/day
- LEL [5, 34]: 35.5 mg/kg/day
- NEL [5, 34]: < 35.5 mg/kg/day
- LEL [6]: 734 mg/kg/day
- LOAEL [6]: 734 mg/kg/day
- NEL [6]: 73.1 mg/kg/day
- NOAEL [6]: 73.1 mg/kg/day
- LOAEL ([7]; systemic / hematology / leukocyte (wbc) count differential / leukocyte (wbc)): 469 mg/kg/day
- NOAEL ([7]; systemic / hematology / leukocyte (wbc) count differential / leukocyte (wbc) + systemic / in life observation / body weight / body weight + …): 93.9 mg/kg/day
- LEL ([7]; systemic / pathology microscopic / thyroid gland / dilatation): 114 mg/kg/day
- NEL ([7]; systemic / pathology microscopic / thyroid gland / dilatation + systemic / in life observation / body weight / body weight + systemic / in …): 22.3 mg/kg/day
- LEL [8]: 200 mg/kg/day
- LOAEL [8]: 200 mg/kg/day
- NEL [8]: 20 mg/kg/day
- NOAEL [8]: 20 mg/kg/day
- LEL [9]: 200 mg/kg/day
- LOAEL [9]: 200 mg/kg/day
- NEL [9]: 40 mg/kg/day
- NOAEL [9]: 40 mg/kg/day
- LEL [10]: 2850 mg/kg/day
- LOAEL [10]: 2850 mg/kg/day
- NEL [10]: 279 mg/kg/day
- NOAEL [10]: 279 mg/kg/day
- NEL [11, 35]: 80 mg/kg/day
- NOAEL [11, 35]: 80 mg/kg/day
- LOAEL ([11]; systemic / clinical chemistry / potassium / potassium + systemic / pathology microscopic / kidney / dilatation): 400 mg/kg/day
- LEL ([11]; systemic / clinical chemistry / potassium / potassium + systemic / pathology microscopic / kidney / dilatation + systemic / in life …): 400 mg/kg/day

SMILES: CCCOc1nn(C(=O)[N-]S(=O)(=O)c2ccccc2C(=O)OC)c(=O)n1C.[Na+] [Propoxycarbazone-sodium]
- LEL [12]: 860 mg/kg/day
- LOAEL [12]: 860 mg/kg/day
- NEL [12]: 205 mg/kg/day
- NOAEL [12]: 205 mg/kg/day
- LEL [13, 36]: 1000 mg/kg/day
- LOAEL [13, 36]: > 1000 mg/kg/day
- NEL [13, 36]: 500 mg/kg/day
- NOAEL [13, 36]: ≥ 1000 mg/kg/day
- LEL [13, 37]: 500 mg/kg/day
- LOAEL [13, 37]: 500 mg/kg/day
- NEL [13, 37]: 100 mg/kg/day
- NOAEL [13, 37]: 100 mg/kg/day
- LEL [14]: 1510 mg/kg/day
- LOAEL [14]: 1510 mg/kg/day
- NEL [14]: 286 mg/kg/day
- NOAEL [14]: 286 mg/kg/day
- LEL [15, 38]: 323 mg/kg/day
- LOAEL [15, 38]: 323 mg/kg/day
- NEL [15, 38]: 79.6 mg/kg/day
- NOAEL [15, 38]: 79.6 mg/kg/day
- LEL [15, 39]: 1310 mg/kg/day
- LOAEL [15, 39]: 1310 mg/kg/day
- NEL [15, 39]: 323 mg/kg/day
- NOAEL [15, 39]: 323 mg/kg/day
- LOAEL [16, 40]: > 1880 mg/kg/day
- NOAEL [16, 40]: ≥ 1880 mg/kg/day
- LEL [16, 41]: 74.6 mg/kg/day
- NEL [16, 41]: < 74.6 mg/kg/day
- LOAEL ([17]; systemic / in life observation / body weight / body weight gain + systemic / urinalysis / ph / ph): 459 mg/kg/day
- NOAEL ([17]; systemic / in life observation / body weight / body weight gain + systemic / urinalysis / ph / ph + systemic / pathology gross / full gross …): 43 mg/kg/day
- LEL [17, 42]: 43 mg/kg/day
- NEL [17, 42]: < 43 mg/kg/day
- LEL [18]: 1180 mg/kg/day
- LOAEL [18]: > 1180 mg/kg/day
- NEL [18]: 286 mg/kg/day
- NOAEL [18]: ≥ 1180 mg/kg/day

SMILES: CC(C)(C)C(O)(CCc1ccc(Cl)cc1)Cn1cncn1 (stereo not given) [Tebuconazole]
- LEL [19, 43]: 15.5 mg/kg/day
- NEL [19, 43]: < 15.5 mg/kg/day
- LOAEL [19, 44]: 77.3 mg/kg/day
- NOAEL [19, 44]: 15.5 mg/kg/day
- LEL [20]: 4.39 mg/kg/day
- LOAEL [20]: 4.39 mg/kg/day
- NEL [20]: 2.96 mg/kg/day
- NOAEL [20]: 2.96 mg/kg/day
- LEL [21, 45]: 60 mg/kg/day
- LOAEL [21, 45]: > 60 mg/kg/day
- NEL [21, 45]: 20 mg/kg/day
- NOAEL [21, 45]: ≥ 60 mg/kg/day
- LEL [21, 46]: 60 mg/kg/day
- LOAEL [21, 46]: > 60 mg/kg/day
- NEL [21, 46]: 20 mg/kg/day
- NOAEL [21, 46]: ≥ 60 mg/kg/day
- LEL [21, 25]: 60 mg/kg/day
- LOAEL [21, 25]: > 60 mg/kg/day
- NEL [21, 25]: 20 mg/kg/day
- NOAEL [21, 25]: ≥ 60 mg/kg/day
